From patent US10398672B2, “Methods and compositions for targeting cancer stem cells” (Whitehead Institute for Biomedical Research, priority 2014, dated 2019)
Where two headings read alike, the source gives them in different places.

Experiments:
[1] = tested on: NAMEC cells; experiment: Treatment of NAMEC cells with cAMP analogs (PKA versus EPAC), morphology; assay type: cell-based, human; conditions: treatment for 12 days, data not shown
[2] = tested on: HMLE cells; experiment: Dose response to chemotherapeutic drugs, HMLE cells; assay type: cell-based, human; conditions: dose response curves FIGS. 8A and 8B
[3] = tested on: NAMEC cells; assay type: cell-based, human; conditions: for susceptibility to inhibition by the drug, in contrast to untreated NAMEC cells: NAMEC cells treated with cholera toxin, FIGS. 8A and 8B
[4] = tested on: E-cadherin/CDH1 promoter; assay type: cell-based, human
[5] = 5 mg/kg, previously tested in vivo in mice; cited from earlier work
[6] = tested on: NAMEC cells; assay type: cell-based, human
[7] = tested on: NAMEC cells; assay type: cell-based, human; remark: listed apart in the source
[8] = tested on: NAMEC cells; assay type: cell-based, human; remark: listed apart in the source
[9] = tested on: NAMEC cells; assay type: cell-based, human; remark: listed apart in the source
[10] = tested on: NAMEC cells; assay type: cell-based, human; remark: listed apart in the source

Nc1ncnc2c1nc(Br)n2[C@@H]1O[C@@H]2COP(=O)(O)O[C@H]2[C@H]1O [8-Br-cAMP]
epithelial morphologies displayed by NAMEC cells [1]: displayed epithelial morphologies

COc1cccc2c1C(=O)c1c(O)c3c(c(O)c1C2=O)C[C@@](O)(C(=O)CO)C[C@@H]3O[C@H]1C[C@H](N)[C@H](O)[C@H](C)O1 [doxorubicin]
susceptibility to inhibition by the drug [2]: susceptible
susceptibility to inhibition by the drug [3]: highly resistant
susceptibility to inhibition by the drug, in contrast to untreated NAMEC cells [3]: more susceptible

C=C[C@@]1(C)CC(=O)[C@]2(O)[C@@]3(C)[C@@H](O)CCC(C)(C)[C@@H]3[C@H](O)[C@H](OC(C)=O)[C@@]2(C)O1 [forskolin]
induce transcription of the E-cadherin reporter compared to the control after normalization to cell number [4]: 40 fold
relative CDH1 Promoter luciferase activity normalized by cells number: differential activity between non-CSCs and CSC [4]: around 40 fold
toxicities / side-effects in mice [5]: no reported side-effects
cells expressing the SC-like CD44hiCD24lo marker profile reverted to the non-SC CD44loCD24hi profile ([6]; NAMEC cells, 100 μg/ml cholera toxin or 10 μM forskolin over 12 days, flow cytometry): 95%

CC(=O)O[C@H]1C(=O)[C@@]2(C)[C@H]([C@H](OC(=O)c3ccccc3)[C@]3(O)C[C@H](OC(=O)[C@H](O)[C@@H](NC(=O)c4ccccc4)c4ccccc4)C(C)=C1C3(C)C)[C@]1(OC(C)=O)CO[C@@H]1C[C@@H]2O [paclitaxel]
susceptibility to inhibition by the drug [2]: susceptible
susceptibility to inhibition by the drug [3]: highly resistant
susceptibility to inhibition by the drug, in contrast to untreated NAMEC cells [3]: more susceptible

cholera toxin
ability to induce luciferase expression (validation of the screen) [4]: induce luciferase expression
susceptibility of NAMEC cells to doxorubicin and paclitaxel after induction of MET [3]: more susceptible
E-cadherin expression compared to untreated NAMEC cells [7]: gain of E-cadherin expression
relative expression of mesenchymal markers compared to untreated NAMEC cells [7]: decrease
cell morphology after treatment [6]: cobblestone-like epithelial morphology
cells expressing the SC-like CD44hiCD24lo marker profile reverted to the non-SC CD44loCD24hi profile [6]: 95%
junctional E-cadherin by fluorescent microscopy [6]: expressed junctional E-cadherin
mesenchymal marker fibronectin by fluorescence microscopy [6]: loss of the mesenchymal marker, fibronectin
intracellular cAMP concentration in NAMEC cells [8]: elevated
invasive properties of NAMEC cells [9]: loss
migratory properties of NAMEC cells [9]: loss
mammosphere-forming ability [10]: complete loss
